Data on one sequence can be found in patent US9303064B2, “Peptide inhibiting matrix metalloproteanases activity and use thereof” (CAREGEN CO., LTD., priority 2011, dated 2016).

The experiment deals with Hyaluronate lyase. In words: Filler product injected into rat dorsal skin. The class given is in vivo. The settings on record: 1-7 days, FIG. 6e. The protocol: FIG. 6e represents effects on residence times of filler products when the filler product containing hyaluronate lyase and the peptide (SEQ ID NO:2) is injected to rat dorsal skin. The effects were determined at intervals of 1-7 days.
Hyaluronate lyase was artificially put into a commercial filler product at a concentration of 100 ug to induce degradation of hyaluronic acids, and then 200 ug peptides were treated. […] An assay using GPC column and an in vivo experiment using rats are performed. Control group was treated with hyaluronate lyase, and treatment group was co-treated hyaluronate lyase and each peptide. When the filler product was injected into rat skin, the degradation of hyaluronic acids inside the filler was inhibited by the treatment of peptides (FIG. 6e).

For MIPCYISSP (CG-Seperin) [SEQ ID NO:2], the “degradation of hyaluronic acids inside the filler injected into rat skin” value (filler with hyaluronate lyase and peptide) is “hyaluronic acids degradation effect is excellent”. The “residence times of filler products” value (versus only filler products) is “stayed for longer period”.
